Target: recombinant human S1P1 receptor (Homo sapiens, UniProt P21453)
Assay: GTPγS assay to determine EC50 values
Type: biochemical
Conditions: 35S-GTPγS binding, membrane preparations of CHO cells expressing recombinant human S1P1 receptor
Procedure: The pH is 7.4. Test compounds are dissolved and diluted in 100% DMSO and pre-incubated at room temperature for 30 min in 150 μl of the above assay buffer, in the absence of ^35S-GTPγS. After addition of 50 μl of ^35S-GTPγS, the assay is incubated for 1 h at room temperature. […] Membrane-bound ^35S-GTPγS is measured with a TopCount from Packard Biosciences.
Specific binding is determined by subtracting non-specific binding from maximal binding. Maximal binding is the amount of cpm bound to the Multiscreen plate in the presence of 10 μM of S1P. Non-specific binding is the amount of binding in the absence of an agonist in the assay.
The EC50 values were determined according to the method described above.

Sequence of recombinant human S1P1 receptor (P21453 whole entry): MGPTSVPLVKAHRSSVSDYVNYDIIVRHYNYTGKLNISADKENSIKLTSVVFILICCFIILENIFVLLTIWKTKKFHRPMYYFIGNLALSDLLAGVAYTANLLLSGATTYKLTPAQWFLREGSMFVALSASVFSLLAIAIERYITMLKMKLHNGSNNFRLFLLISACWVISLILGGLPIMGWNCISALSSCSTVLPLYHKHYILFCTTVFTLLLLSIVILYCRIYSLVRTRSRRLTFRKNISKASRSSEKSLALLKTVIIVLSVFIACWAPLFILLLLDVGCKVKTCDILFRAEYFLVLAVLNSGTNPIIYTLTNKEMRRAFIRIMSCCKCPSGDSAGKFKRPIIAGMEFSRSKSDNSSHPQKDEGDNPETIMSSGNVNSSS

SMILES: Cc1sc(C(=O)CCc2ccc(CC(O)CO)cc2)c2c1[C@H]1[C@@H](C2)C1(C)C (stereo partly drawn) [Example 1, 3-[4-((2S/R)-2,3-dihydroxy-propyl)-phenyl]-1-((1aS,5aR)-1,1,2-trimethyl-1,1a,5,5a-tetrahydro-3-thia-cyclopropa[a]pentalen-4-yl)-propan-1-one]
- EC50: 12 nM

SMILES: Cc1sc(C(=O)CCc2ccc(CCCN)cc2)c2c1[C@H]1[C@@H](C2)C1(C)C [Example 2]
- EC50: 3 nM

SMILES: Cc1sc(C(=O)CCc2ccc(CCC(N)=O)cc2)c2c1[C@H]1[C@@H](C2)C1(C)C [Example 13]
- EC50: 13 nM

SMILES: Cc1sc(C(=O)CCc2ccc(C(=O)NCCN)cc2)c2c1[C@H]1[C@@H](C2)C1(C)C [Example 31]
- EC50: 6 nM

SMILES: Cc1cc(CCC(=O)c2sc(C)c3c2C[C@@H]2[C@H]3C2(C)C)ccc1OCCN(C)C [Example 37]
- EC50: 58 nM

SMILES: Cc1cc(CCC(=O)c2sc(C)c3c2CC2C3C2(C)C)ccc1OCC(O)CNCCC(=O)O (stereo not drawn) [Example 48]
- EC50: 2 nM

SMILES: Cc1sc(C(=O)CCc2ccc(OCC(O)CNCCC(=O)O)c(Cl)c2)c2c1C1C(C2)C1(C)C (stereo not drawn) [Example 60]
- EC50: 1.4 nM

SMILES: Cc1cc(CCC(=O)c2sc(C)c3c2C[C@@H]2[C@H]3C2(C)C)cc(C)c1OCC(O)CN (stereo partly drawn) [Example 99, 3-[4-(3-amino-2-hydroxy-propoxy)-3,5-dimethyl-phenyl]-1-((1aS,5aR)-1,1,2-trimethyl-1,1a,5,5a-tetrahydro-3-thia-cyclopropa[a]pentalen-4-yl)-propan-1-one]
- EC50: 1.1 nM

SMILES: COc1cc(CCC(=O)c2sc(C)c3c2CC2C3C2(C)C)cc(Cl)c1OCCN1CCC(C(=O)O)C1 (stereo not drawn) [Example 149]
- EC50: 2 nM

SMILES: COc1cc(CCC(=O)c2sc(C)c3c2CC2C3C2(C)C)cc(Cl)c1OCC(O)CN1CCNCC1 (stereo not drawn) [Example 175]
- EC50: 28 nM

SMILES: COCC(O)COc1c(C)cc(CCC(=O)c2sc(C)c3c2C[C@@H]2[C@H]3C2(C)C)cc1C (stereo partly drawn) [Example 233, 3-[4-(2-Hydroxy-3-methoxy-propoxy)-3,5-dimethyl-phenyl]-1-((1aS,5aR)-1,1,2-trimethyl-1,1a,5,5a-tetrahydro-3-thia-cyclopropa[a]pentalen-4-yl)-propan-1-one]
- EC50: 2.3 nM

SMILES: Cc1cc(CCC(=O)c2sc(C)c3c2C[C@@H]2[C@H]3C2(C)C)cc(C)c1OCC(O)CNC(=O)CN (stereo partly drawn) [Example 234, 2-amino-N-(3-{2,6-dimethyl-4-[3-oxo-3-((1aS,5aR)-1,1,2-trimethyl-1,1a,5,5a-tetrahydro-3-thia-cyclopropa[a]pentalen-4-yl)-propyl]-phenoxy}-2-hydroxy-propyl)-acetamide]
- EC50: 2.7 nM

SMILES: Cc1cc(CCC(=O)c2sc(C)c3c2C[C@@H]2[C@H]3C2(C)C)cc(C)c1CCC(=O)NC(CO)CO [Example 237, 3-{2,6-Dimethyl-4-[3-oxo-3-((1aS,5aR)-1,1,2-trimethyl-1,1a,5,5a-tetrahydro-3-thia-cyclopropa [a]pentalen-4-yl)-propyl]-phenyl}-N-(2-hydroxy-1-hydroxymethyl-ethyl)-propionamide]
- EC50: 2.9 nM

SMILES: Cc1cc(CCC(=O)c2sc(C)c3c2C[C@@H]2[C@H]3C2(C)C)cc(C)c1CC(O)CO (stereo partly drawn) [Example 239, 3-[4-(2,3-dihydroxy-propyl)-3,5-dimethyl-phenyl]-1-((1aS,5aR)-1,1,2-trimethyl-1,1a,5,5a-tetrahydro-3-thia-cyclopropa[a]pentalen-4-yl)-propan-1-one]
- EC50: 0.8 nM

SMILES: CCc1cc(CCC(=O)c2sc(C)c3c2CC2C3C2(C)C)cc(C)c1OCC(O)CNC(=O)CO (stereo not drawn) [Example 244]
- EC50: 1.1 nM
